Literature values, collected in patent US20200404921A1, “SOIL TREATMENT WITH METAM SALTS AND ONE OR MORE OF CALCIUM THIOSULFATE, CALCIUM CHLORIDE AND CALCIUM NITRATE” (Tessenderlo Kerley, Inc., priority 2018, published 2020).

What was measured:
[1] = more soluble than gypsum
soilborne disease = conditions: about 40 gallons of metam sodium per acre (190 Kg of active ingredient/ha), commercial conditions

| Structure (SMILES) | solubility relative to gypsum [1] [times] | reduction of certain soilborne disease (soilborne disease) [%] |
| --- | --- | --- |
| O=S([O-])([O-])=S.[Ca+2] [calcium thiosulfate] | 125 | – |
| CNC(=S)S [metam sodium, sodium methyldithiocarbamate] | – | ~70 |
